Laboratory results taken from US11504382B2, “Tricyclic inhibitors of Hepatitis B virus” (Antios Therapeutics, Inc., priority 2018, dated 2022).
pEC50: −log10 of the molar value. Where two headings read alike, the source gives them in different places.

Columns and labels:
HBV [1] = test: HBV inhibition assay in HepAD38 cells (extracellular HBV DNA by direct qPCR); assay type: cell-based, Hepatitis B virus; settings: 96 hours; for pEC50: 8-point dose-response curve, read-out: HBV inh EC50; for Anti HBV Activity (conc μM): relative to non-treated reference
HBV [2] = settings: Phase 1b proof-of-concept clinical studies; cited from earlier work

Compound | pEC50 (HBV [1]; Hepatitis B virus) | Anti HBV Activity (conc μM) (HBV [1]; 0.1 μM) | other results
Cc1cc(NC(=O)c2c3c(cn2C)S(=O)(=O)NC2CN(C(=O)c4ncoc4C)CC2CO3)ccc1F (stereo not drawn) [Example E147, Trans-N-(4-fluoro-3-methylphenyl)-7-methyl-2-(5-methyloxazole-4-carbonyl)-2,3,3a,4,10,10a-hexahydro-1H,7H-dipyrrolo[3,4-b:3′,4′-f][1,4,5]oxathiazocine-8-carboxamide 5,5-dioxide] | > 6.00 |  | 
Cc1cc(NC(=O)c2c3c(cn2C)S(=O)(=O)NC2CN(C(=O)C4(C)CCCO4)CC2CO3)ccc1F (stereo not drawn) [Example E148, Trans-N-(4-fluoro-3-methylphenyl)-7-methyl-2-(2-methyltetrahydrofuran-2-carbonyl)-2,3,3a,4,10,10a-hexahydro-1H,7H-dipyrrolo[3,4-b:3′,4′-f][1,4,5]oxathiazocine-8-carboxamide 5,5-dioxide] | > 6.00 |  | 
Cc1cc(NC(=O)c2c3c(cn2C)S(=O)(=O)NC2CN(C(=O)C4(C)COC4)CC2CO3)ccc1F (stereo not drawn) [Example E149, Trans-N-(4-fluoro-3-methylphenyl)-7-methyl-2-(3-methyloxetane-3-carbonyl)-2,3,3a,4,10,10a-hexahydro-1H,7H-dipyrrolo[3,4-b:3′,4′-f][1,4,5]oxathiazocine-8-carboxamide 5,5-dioxide] |  |  | pEC50 (HBV [1]): > 6.00
Cc1cc(NC(=O)c2c3c(cn2C)S(=O)(=O)NC2CN(C(=O)C45CC(CO4)C5)CC2CO3)ccc1F (stereo not drawn) [Example E150, Trans-2-(2-oxabicyclo[2.1.1]hexane-1-carbonyl)-N-(4-fluoro-3-methylphenyl)-7-methyl-2,3,3a,4,10,10a-hexahydro-1H,7H-dipyrrolo[3,4-b:3′,4′-f][1,4,5]oxathiazocine-8-carboxamide 5,5-dioxide] | > 6.00 |  | 
Cc1cc(NC(=O)c2c3c(cn2C)S(=O)(=O)NC2C(=O)N(Cc4ccccc4)CC2CO3)ccc1F (stereo not drawn) [Example E155, Cis 2-benzyl-N-(4-fluoro-3-methylphenyl)-7-methyl-3-oxo-2,3,3a,4,10,10a-hexahydro-1H,7H-dipyrrolo[3,4-b:3′,4′-f][1,4,5]oxathiazocine-8-carboxamide 5,5-dioxide] | > 6.00 |  | 
CCOC(=O)N1CC2CNc3c(cn(C)c3C(=O)Nc3ccc(F)c(C)c3)S(=O)(=O)NC2C1 (stereo not drawn) [Example E157, Cis Ethyl 8-((4-fluoro-3-methylphenyl)carbamoyl)-7-methyl-3a,4,7,9,10,10a-hexahydro-1H-dipyrrolo[3,4-c:3′,4′-g][1,2,6]thiadiazocine-2(3H)-carboxylate 5,5-dioxide] | < 6.00 |  | 
O=C(Nc1cc(F)c(F)c(F)c1)c1ccc(F)c(S(=O)(=O)N2CCC(O)CC2)c1 [NVR3-778] |  |  | reduction in HBV DNA and serum HBV RNA (HBV [2]): significant reduction in HBV DNA and serum HBV RNA
Ethyl 8-((3-chloro-4-fluorophenyl)carbamoyl)-7-methyl-3a,4,10,10a-tetrahydro-1H,7H-dipyrrolo[3,4-b:3′,4′-f][1,4,5]oxathiazocine-2(3H)-carboxylate 5,5-dioxide (3aR,10aR) [Example E41] |  |  | Anti HBV Activity (conc μM) (HBV [1]; 0.05 μM): A (0.05) (HBV inhibition greater than 50% at the concentration indicated in the table); pEC50 (HBV [1]): > 6.00
Ethyl 8-((3-chloro-4-fluorophenyl)carbamoyl)-7-methyl-3a,4,10,10a-tetrahydro-1H,7H-dipyrrolo[3,4-b:3′,4′-f][1,4,5]oxathiazocine-2(3H)-carboxylate 5,5-dioxide (3aS,10aS) [Example E42] |  | B (0.1) (HBV inhibition less than 50% at the concentration indicated in the table) | 
Ethyl 8-((4-fluoro-3-methylphenyl)carbamoyl)-7-methyl-3a,4,10,10a-tetrahydro-1H,7H-dipyrrolo[3,4-b:3′,4′-f][1,4,5]oxathiazocine-2(3H)-carboxylate 5,5-dioxide (3aS,10aS) [Example E40] |  | B (0.1) (HBV inhibition less than 50% at the concentration indicated in the table) | 
ethyl 7-methyl-8-((3,4,5-trifluorophenyl)carbamoyl)-3a,4,10,10a-tetrahydro-1H,7H-dipyrrolo[3,4-b:3′,4′-f][1,4,5]oxathiazocine-2(3H)-carboxylate 5,5-dioxide (3aR,10aR) [Example E31] |  | B (0.1) (HBV inhibition less than 50% at the concentration indicated in the table) | 
ethyl 7-methyl-8-((3,4,5-trifluorophenyl)carbamoyl)-3a,4,10,10a-tetrahydro-1H,7H-dipyrrolo[3,4-b:3′,4′-f][1,4,5]oxathiazocine-2(3H)-carboxylate 5,5-dioxide (3aS,10aS) [Example E32] |  | A (0.1) (HBV inhibition greater than 50% at the concentration indicated in the table) | pEC50 (HBV [1]): > 6.00
tert-butyl 7-methyl-8-((3,4,5-trifluorophenyl)carbamoyl)-3a,4,10,10a-tetrahydro-1H,7H-dipyrrolo[3,4-b:3′,4′-f][1,4,5]oxathiazocine-2(3H)-carboxylate 5,5-dioxide (3aR,10aR) [Example E33] |  | B (0.1) (HBV inhibition less than 50% at the concentration indicated in the table) | 
